Where “and” joins values, the source holds several entries; their conditions need not be identical. Equal entries are not always repeated.
Legend:
[1] = Freeze/thaw stability of AST-2660 in human plasma (LC-MS/MS); format: in vitro ADME
Experimental: (§1) The detection method established in example 4 was used to detect the content of AST-2660 in the human plasma to be tested.
(§2) Matrix: the mixed normal human plasma containing anticoagulant (K2 EDTA) • a: the internal standard working solution: AST-2660-D8 was taken, added with methanol, and diluted to prepare a solution containing about 100 ng per 1 ml. • b: the solution to be tested (no internal standard compound was added to the solution to be tested at this time): it was obtained by taking a blood sample to be tested. • c: the standard working solution (no internal standard compound was added to the standard working solution at this time): an appropriate amount of AST-2660 was taken and accurately weighed, dissolved with methanol, and diluted to prepare a solution containing about 1.0 mg per 1 ml, which was used as the standard working stock solution. An appropriate amount of the standard working stock solution was taken, added with the matrix and diluted to prepare standard working solutions with different concentrations containing about 200 ng, 160 ng, 100 ng, 50 ng, 10 ng, 2.0 ng, 1.0 ng and 0.5 ng per 1 ml, respectively. (The solution was stored at −70° C.) • d: the quality control sample solution: an appropriate amount of AST-2660 was taken and accurately weighed, dissolved with methanol, and diluted to prepare a solution containing about 10 μg per 1 ml, which was used as the quality control working stock solution. An appropriate amount of the quality control working stock solution was taken, added with matrix to prepare quality control working solutions with different concentrations containing about 150 ng, 60 ng, 15 ng, 1.5 ng and 0.5 ng per 1 ml. (The solution was stored at −70° C.)
(§3) The solution to be tested, the standard working solution and the quality control sample solution were thawed at room temperature and mixed uniformly. 100 μl of the above solution was respectively taken, added with 20 μl of the internal standard and 500 μl of methanol, and vortexed for 3 minutes to mix uniformly, and then centrifuged for 10 minutes at 2143 rcf. 450 μl of the supernatant was taken and dried, and 150 μl of methanol was added for redissolution, and sonicated. Then the plates were centrifuged for 3 minutes at 4° C. It was obtained by taking […] of supernatant.
(§4) Liquid phase conditions: A SHARC 1, 3 μm, 2.1*50 mm or chromatograph column with equivalent performance was used; the mobile phase was a methanol solution comprising low content of ammonium acetate; the mobile phase B was acetonitrile; the gradient elution was performed according to the following table, column temperature: 20° C.; injection volume: 5 μl.
(§5) Mass spectrometric conditions: electrospray ion source with negative ion scanning mode; spray potential: −4500 V; ion source temperature: 500° C.; collision energy (CE): −22 eV; declustering potential (DP): −55V; entrance potential (EP): −10V; collision chamber exit potential (CXP): −16V; dwell time: 100 ms; high purity nitrogen was used for all gases; AST-2660 ions pairs: m/z 147.0→m/z 62.9; the internal standard AST-2660-D8 ion pairs: m/z 155.0→m/z 62.9.
(§6) The AST-2660 standard working solution, blank sample, zero concentration sample, sample solution to be tested and quality control sample solution with different concentrations after extraction were respectively taken and injected into LC-MS/MS for detection.
(§7) Calculation results: the relationship function y=f (x) of the ratio of the peak area of the AST-2660 to that of the internal standard was obtained from AST-2660 standard working solutions with different concentrations. The ratio of the peak area of the AST-2660 to that of the internal standard was determined from the solution to be tested after extraction, and substituted into the relationship function y=f (x) to calculate the concentration of the metabolite II in the solution to be tested.

[2] = Experimental table stability of AST-2660 in human plasma at room temperature (LC-MS/MS); format: in vitro ADME; details: for AST-2660 concentration, Mean value / AST-2660 concentration, single replicates / RE (%) vs nominal: human plasma, room temperature
Experimental: as §1, §2, §3, §4, §5, §6, §7

[3] = Stability of treated (extracted) human plasma samples of AST-2660 at 4° C. (LC-MS/MS); format: physicochemical; details: stored for 54 hours at 4° C.
Experimental: as §1
Matrix: the mixed normal human plasma containing anticoagulant (K2 EDTA) • a: the internal standard working solution: AST-2660-D8 was taken, added with methanol, and diluted to prepare a solution containing about 100 ng per 1 ml. • b: the solution to be tested (no internal standard compound was added to the solution to be tested at this time): it was obtained by taking a blood sample to be tested. • c: the standard working solution (no internal standard compound was added to the standard working solution at this time): an appropriate amount of AST-2660 was taken and accurately weighed, dissolved with methanol, and diluted to prepare a solution containing about 1.0 mg per 1 ml, which was used as the standard working stock solution. […]
as §7

[4] = DilQC (10-fold dilution) nominal 1500 ng/ml, 5 freeze/thaw cycles at −20° C.
[5] = DilQC (10-fold dilution) nominal 1500 ng/ml, 5 freeze/thaw cycles at −70° C.
[6] = QC1 nominal 1.50 ng/ml, 5 freeze/thaw cycles at −20° C.
[7] = QC1 nominal 1.50 ng/ml, 5 freeze/thaw cycles at −70° C.
[8] = QC4 nominal 150 ng/ml, 5 freeze/thaw cycles at −20° C.
[9] = QC4 nominal 150 ng/ml, 5 freeze/thaw cycles at −70° C.
[10] = DilQC (10-fold dilution) nominal 1500 ng/ml, 0 hour
[11] = DilQC (10-fold dilution) nominal 1500 ng/ml, 4 hours
[12] = DilQC (10-fold dilution) nominal 1500 ng/ml, 24 hours
[13] = QC1 nominal 1.50 ng/ml, 4 hours
[14] = QC1 nominal 1.50 ng/ml, 24 hours
[15] = QC4 nominal 150 ng/ml, 24 hours

Which “AST-2660 concentration, Mean value” [1, 4] does the source give for O=P([O-])(N1CC1)N1CC1.[Na+] [AST-2660] here?
The value was 1288 ng/mL.

What about the “AST-2660 concentration, single replicates” value [1, 4] of the same molecule?
The value was 1310 ng/ml (2×) and 1250 ng/ml and 1280 ng/ml.

What about the “RE (%) vs nominal” value [1, 4] of the same molecule?
The value was −14.2%.

What about the “AST-2660 concentration, Mean value” [1, 5] of the same molecule?
Its value is 1540 ng/mL.

What about the “AST-2660 concentration, single replicates” value [1, 5] of the same molecule?
The value was 1650 ng/ml and 1500 ng/ml (2×) and 1510 ng/ml.

And the “RE (%) vs nominal” value [1, 5]?
Its value is 2.7%.

What about the “AST-2660 concentration, Mean value” [1, 6] of the same molecule?
The value was 1.13 ng/mL.

And the “AST-2660 concentration, single replicates” value [1, 6]?
The value was 1.13 ng/mL and 1.18 ng/mL and 1.14 ng/mL and 1.06 ng/mL.

What about the “RE (%) vs nominal” value [1, 6] of the same molecule?
The value was −24.8%.

What about the “AST-2660 concentration, Mean value” [1, 7] of the same molecule?
The value was 1.60 ng/mL.

And the “AST-2660 concentration, single replicates” value [1, 7]?
Its value is 1.69 ng/mL and 1.72 ng/mL and 1.47 ng/mL and 1.51 ng/mL.

What about the “RE (%) vs nominal” value [1, 7] of the same molecule?
Its value is 6.5%.

And the “AST-2660 concentration, Mean value” [1, 8]?
Its value is 140 ng/mL.

And the “AST-2660 concentration, single replicates” value [1, 8]?
The value was 136 ng/mL and 138 ng/mL and 152 ng/mL and 132 ng/mL.

What about the “RE (%) vs nominal” value [1, 8] of the same molecule?
Its value is −7.0%.

What about the “AST-2660 concentration, Mean value” [1, 9] of the same molecule?
Its value is 149 ng/mL.

What about the “AST-2660 concentration, single replicates” value [1, 9] of the same molecule?
The value was 145 ng/ml and 148 ng/ml (2×) and 154 ng/ml.

What about the “RE (%) vs nominal” value [1, 9] of the same molecule?
The value was −0.8%.

What about the “change of AST-2660 content (in words)” value ([1]; freeze-thaw process from −20° C. to room temperature) of the same molecule?
The value was “reduced significantly”.

And the “change of AST-2660 content (in words)” value ([1]; freeze-thaw process from −70° C. to room temperature)?
Its value is “almost no reduction”.

And the “stability (in words)” value ([2]; human plasma samples at room temperature)?
The value was “not stable”.

And the “AST-2660 concentration, Mean value” [2, 10]?
The value was 1680 ng/mL.

And the “AST-2660 concentration, single replicates” value [2, 10]?
Its value is 1610 ng/mL and 1770 ng/mL and 1700 ng/mL and 1640 ng/mL.

What about the “RE (%) vs nominal” value [2, 10] of the same molecule?
The value was 12.0%.

What about the “AST-2660 concentration, Mean value” [2, 11] of the same molecule?
Its value is 1593 ng/mL.

What about the “AST-2660 concentration, single replicates” value [2, 11] of the same molecule?
Its value is 1500 ng/mL and 1710 ng/mL and 1600 ng/mL and 1560 ng/mL.

And the “RE (%) vs nominal” value [2, 11]?
The value was 6.2%.

And the “AST-2660 concentration, Mean value” [2, 12]?
Its value is 1455 ng/mL.

And the “AST-2660 concentration, single replicates” value [2, 12]?
Its value is 1380 ng/mL and 1500 ng/mL and 1480 ng/mL and 1460 ng/mL.

And the “RE (%) vs nominal” value [2, 12]?
The value was −3.0%.

What about the “AST-2660 concentration, Mean value” ([2]; QC1 nominal 1.50 ng/ml, 0 hour) of the same molecule?
Its value is 1.42 ng/mL.

And the “AST-2660 concentration, single replicates” value ([2]; QC1 nominal 1.50 ng/ml, 0 hour)?
The value was 1.44 ng/mL and 1.32 ng/mL and 1.38 ng/mL and 1.55 ng/mL.

And the “RE (%) vs nominal” value ([2]; QC1 nominal 1.50 ng/ml, 0 hour)?
The value was −5.2%.

And the “AST-2660 concentration, Mean value” [2, 13]?
Its value is 1.35 ng/mL.

What about the “AST-2660 concentration, single replicates” value [2, 13] of the same molecule?
Its value is 1.34 ng/ml (2×) and 1.31 ng/ml and 1.42 ng/ml.

And the “RE (%) vs nominal” value [2, 13]?
The value was −9.8%.

And the “AST-2660 concentration, Mean value” [2, 14]?
Its value is 1.32 ng/mL.

And the “AST-2660 concentration, single replicates” value [2, 14]?
The value was 1.33 ng/mL and 1.28 ng/mL and 1.38 ng/mL and 1.27 ng/mL.

What about the “RE (%) vs nominal” value [2, 14] of the same molecule?
The value was −12.3%.

What about the “AST-2660 concentration, Mean value” ([2]; QC4 nominal 150 ng/ml, 0 hour) of the same molecule?
The value was 136 ng/mL.

What about the “AST-2660 concentration, single replicates” value ([2]; QC4 nominal 150 ng/ml, 0 hour) of the same molecule?
Its value is 130 ng/mL and 142 ng/mL and 135 ng/mL and 137 ng/mL.

And the “RE (%) vs nominal” value ([2]; QC4 nominal 150 ng/ml, 0 hour)?
Its value is −9.3%.

And the “AST-2660 concentration, Mean value” ([2]; QC4 nominal 150 ng/ml, 4 hours)?
Its value is 138 ng/mL.

What about the “AST-2660 concentration, single replicates” value ([2]; QC4 nominal 150 ng/ml, 4 hours) of the same molecule?
Its value is 130 ng/mL and 141 ng/mL and 136 ng/mL and 145 ng/mL.

And the “RE (%) vs nominal” value ([2]; QC4 nominal 150 ng/ml, 4 hours)?
Its value is −8.0%.

What about the “AST-2660 concentration, Mean value” [2, 15] of the same molecule?
The value was 125 ng/mL.

And the “AST-2660 concentration, single replicates” value [2, 15]?
Its value is 117 ng/mL and 128 ng/mL and 124 ng/mL and 129 ng/mL.

What about the “RE (%) vs nominal” value [2, 15] of the same molecule?
The value was −17.0%.

And the “stability of content (in words)” value [3]?
Its value is “stable”.

— US20240140970A1, “A […], AND PREPARATION METHOD AND USE THEREOF” (ASCENTAWITS PHARMACEUTICALS, LTD., priority 2021, published 2024)
